Values of other authors as cited in US20140107223A1, “TOPICAL UBIQUINOL SUPPLEMENT SKIN CARE COMPOSITIONS” (WHITEHILL ORAL TECHNOLOGIES, INC., priority 2012, published 2014).

Key:
[1] = test system: CRP concentrations; settings: dietary supplementation, healthy baboons
[2] = topical once weekly via syringe for six weeks, combined with mechanical debridement
[3] = test system: human monocytic cellline THP-1; settings: LPS-stimulated THP-1
[4] = 150 mg capsule/day for two months
[5] = not given; remark: listed apart in the source

Molecule | baseline inflammatory status indicated by CRP concentrations [1] | bleeding on probing [2] | effect on inflammatory cytokines and chemokines in vitro [3] | water solubility | effect on oral environment for periodontal disease [4] | bioavailability versus ubiquinone ([5]; oral) | time to steady-state concentrations ([5]; oral administration) | time required to reach peak concentration ([5]; oral administration, absorption from the gastrointestinal tract) | peak blood values ([5]; oral, 150 mg per day in a softgel, within 28 days)
COC1=C(OC)C(=O)C(C/C=C(\C)CC/C=C(\C)CC/C=C(\C)CC/C=C(\C)CC/C=C(\C)CC/C=C(\C)CC/C=C(\C)CC/C=C(\C)CC/C=C(\C)CCC=C(C)C)=C(C)C1=O [CoQ10, coenzyme Q10] | significantly enhances this anti-inflammatory effect | no bleeding at six weeks | – | – | – | – | – | – | –
COc1c(O)c(C)c(C/C=C(\C)CC/C=C(\C)CC/C=C(\C)CC/C=C(\C)CC/C=C(\C)CC/C=C(\C)CC/C=C(\C)CC/C=C(\C)CC/C=C(\C)CCC=C(C)C)c(O)c1OC [UBIQUINOL] | – | – | anti-inflammatory effects | less than 0.1 mg/ml | is effective in improving oral environment for periodontal disease | greater bioavailability than ubiquinone | two | approximately 6 hours | 3.84 µg/mL
Vitamin E | reduces baseline inflammatory status | – | – | – | – | – | – | – | –
